Results published in patent EP1490080B1, “medical use of anthocyanins extracted from black rice” (Forbes Medi-Tech Inc., priority 2002, dated 2003).

Key:
[1] = system: LPS-activated mouse macrophage cell RAW264.7; assay: Inhibition of nitric oxide (nitrite, Griess reagent) in LPS-activated macrophage cells; assay type: cell-based; details: mean±SD, 1µg/ml LPS 24 hr
Experimental: Mouse macrophage cell RAW 264.7 (ATCC) was cultured in DMEM medium supplemented with 10% fetal bovine serum and antibiotics (100U/ml of penicillin and […]) at 37°C under 5% CO2, Cell was plated at a density of 2×10^5 cells/well into 96-well plates. After overnight growth when cells adhered to the bottom of well, various amount of the black rice extract in PBS and 1µg/ml bacterial lipopolysaccharide (LPS, Escheridchia coli, serotype 0111:B4) were added for another 24 hr. Medium was aliquot (100µl) to another 96-well plate where 100µl of Greiss reagent (1% sulfanilamide in 5% phosphoric acid and 0.1 % naphthylethylenediamine dihydrocholide in water, 1:1 v/v) was then added. Absorbance at 540nm was determined with ELISA plate reader. The concentration of nitrite was measured in according to standard curve obtained from the same procedure. The inhibition of nitric oxide was calculated according to the following equation: %Inhibition = (Abspositive -Abssample)/(Abspositive -Absnegative) × 100 [formula] of which, Abspositive, Absnegative, Abssample represent absorbance of cultural media with LPS, without LPS and sample with LPS.
Large amount of nitric oxide expression was made possible by using mouse macrophage cell line RAW264.7 co-incubated with bacterial LPS. The measurement of nitric oxide was indirectly measured by its metabolite nitrite in the supernatant of cell cultural media by Griess reagent.

supercoiled DNA [2] = assay: Peroxyl radical (AAPH) induced supercoiled DNA scission, agarose gel electrophoresis; assay type: biochemical
Description: The effects of the anthocyanin composition in preventing DNA oxidation induced by oxidative radicals such as the peroxyl radical and hydroxyl radicals (site specific and non-site specific) were investigated. […] A similar effect was seen by the addition of cyanidin-3-glucoside and peonidin-3-glucoside in combination at various ratios Figure 11).
(§1) Both peroxyl radical and hydroxyl radical were applied in this test to evaluate the effect of black rice extract of the present invention in preventing DNA scission by 0.7% agarose gel electrophoresis with 0.5µg/ml ethidium bromide using TAE buffer (40mM Tris-acetate, 2mM EDTA, pH8.5). DNA bands were visualized by ultraviolet bench top transilluminator (UVP Inc., Upland, CA) and densities of bands were analyzed by LabWork software (UVP Inc., Upland, CA). The inhibition of DNA nicking was calculated as following equation: %Inh = (Dnative -Dsample)/(Dnative -Doxidative) × 100 [formula]
(§2) Dnative, Doxidative. Dsample represented the density of DNA without AAPH, DNA with AAPH and DNA with AAPH and test sample, respectively.

supercoiled DNA [3] = assay: DNA nicking induced by site-specific hydroxyl radical, agarose gel electrophoresis; assay type: biochemical
Experimental: (§3) In this hydroxyl radical model, the hydroxyl radical was generated by ascorbic acid mediated Fenton reaction.
as §1, §2
(§4) In the present study, we adapted the concept of both non-site specific and site-specific hydroxyl radical and applied these to the DNA scission assays (Figures 10 and 11). It is evident that hydroxyl radical, no matter site-specific or non-site specific broke the integrity of supercoiled DNA strand (lane 2 of Figure 10).

supercoiled DNA [4] = assay: DNA nicking induced by non-site specific hydroxyl radical, agarose gel electrophoresis; assay type: biochemical
Experimental: as §3, §1, §2, §4

Row | Compound | inhibition at 1 µM ([1]; Mus musculus, RAW264.7, 1µM, read-out: Inhibition percentage of nitric oxide) [%] | inhibition at 10 µM ([1]; Mus musculus, RAW264.7, 10µM, read-out: Inhibition percentage of nitric oxide) [%] | inhibition at 100 µM ([1]; Mus musculus, RAW264.7, 100µM, read-out: Inhibition percentage of nitric oxide) [%] | protection on the DNA strand scission (supercoiled DNA [2]; 1µg/ml) [%] | protection on the DNA strand scission (supercoiled DNA [2]; 5µg/ml) [%] | Inhibition percentage of nitric oxide ([1]; 1µM) [%] | Inhibition percentage of nitric oxide ([1]; 10µM) [%] | Inhibition percentage of nitric oxide ([1]; 100µM) [%] | Inhibition percentage, Site specific (supercoiled DNA [3]; 0.17 µg/ml) [%] | Inhibition percentage, Site specific (supercoiled DNA [3]; 1.7 µg/ml) [%] | Inhibition percentage, Non-site specific (supercoiled DNA [4]; 0.17 µg/ml) [%] | Inhibition percentage, Non-site specific (supercoiled DNA [4]; 1.7 µg/ml) [%] | %Inh (supercoiled DNA [2]; 10µg/ml) [%] | recovery of peroxyl radical damage to the supercoiled DNA strand (supercoiled DNA [2]; Figure 10)
1 | OC[C@H]1O[C@@H](Oc2cc3c(O)cc(O)cc3[o+]c2-c2ccc(O)c(O)c2)[C@H](O)[C@@H](O)[C@@H]1O [Cyanidin-3-glucoside, cyanidin-3-O-glucoside] | 12.7 ± 2.7 | 23.1 ± 0.9 | 72.9 ± 4.8 | 11.5 | 45.3 |  |  |  |  |  |  |  |  | 
2 | COc1cc(-c2[o+]c3cc(O)cc(O)c3cc2O[C@@H]2O[C@H](CO)[C@@H](O)[C@H](O)[C@H]2O)ccc1O [Peonidin-3-glucoside, peonidin-3-O-glucoside] |  |  |  | 11.4 | 44.1 | 14.4±0.6 | 22.3±3.7 | 35.0±2.5 |  |  |  |  |  | 
3 | Cc1c(C)c2c(c(C)c1O)CCC(C)(C(=O)O)O2 (stereo not shown) [Trolox] |  |  |  |  |  |  |  |  | 25.7 | 61.0 | 44.0 | 80.8 | 100 | partial recovery
